Common to all, as to assay type: functional
In experiment [1] the test system is Staphylococcus aureus. The experiment can be described thus: Antibacterial activity against methicillin-resistant Staphylococcus aureus Col and Staphylococcus aureus Col-LysoR co-infected in CF1 mouse assessed as kidney infection after 7 days.
In experiment [2] the test system is Staphylococcus aureus. Put plainly: Antibacterial activity against methicillin-resistant Staphylococcus aureus Col in CF1 mouse assessed as kidney infection after 7 days.
Experiment [3] has as its system Staphylococcus aureus. The experiment can be described thus: Antibacterial activity against methicillin-resistant Staphylococcus aureus MBT 5040 in CF1 mouse assessed as kidney infection after 7 days.
Experiment [4] deals with Staphylococcus aureus. The experiment can be described thus: Antibacterial activity against methicillin-resistant Staphylococcus aureus MBT 5040 and Staphylococcus aureus MBT 5040-LysoR co-infected in CF1 mouse assessed as kidney infection after 7 days.
The subject of experiment [5] is Staphylococcus aureus. Put plainly: Antibacterial activity against methicillin-resistant Staphylococcus aureus Col.
The test system of experiment [6] is Staphylococcus aureus. The experiment can be described thus: Antibacterial activity against methicillin-resistant Staphylococcus aureus Col-LysoR.
Experiment [7] has as its system Staphylococcus aureus. The experiment can be described thus: Antibacterial activity against methicillin-resistant Staphylococcus aureus MBT 5040.
In experiment [8] the test system is Staphylococcus aureus. Put plainly: Antibacterial activity against methicillin-resistant Staphylococcus aureus MBT 5040-LysoR.

In the case of `CCOc1ccc2ccccc2c1C(=O)N[C@@H]1C(=O)N2[C@@H]1SC(C)(C)[C@@H]2C(=O)O` [NAFCILLIN], the CFU in experiment [1] turned out to be 10780; in experiment [2], 9960; in experiment [3] it was 5630; in experiment [4], 9520.
On to `Cc1onc(-c2ccccc2)c1C(=O)N[C@@H]1C(=O)N2[C@@H]1SC(C)(C)[C@@H]2C(=O)[O-].[Na+]`, for which the MIC (as a rule, the least concentration at which growth counts as inhibited) was > 32 µg/mL in experiment [5], 0.25 µg/mL in experiment [6], > 32 µg/mL in experiment [7] and 0.25 µg/mL in experiment [8].

Values taken from ChEMBL document CHEMBL1142178, “Lysostaphin-resistant variants of Staphylococcus aureus demonstrate reduced fitness in vitro and in vivo” (2007).
